Measured values reported in US20100008868A1, “SUSTAINED REMISSION OF ATOPIC DERMATITIS” (priority 2007, published 2010).

What was measured:
atopic dermatitis [1] = test: Topical treatment of atopic dermatitis lesions in individual subjects (case reports, Examples 11-15); assay type: in vivo, human; details: topical application to atopic dermatitis lesion
Description: The product was applied on an irregular basis with the longest exposure time at night.
A subject with an atopic dermatitis lesion on the palm of the right hand is presently being treated with the invention containing betamethasone and clemastine hydrogen fumarate.

atopic dermatitis [2] = details: cited from earlier work
atopic dermatitis [3] = details: 0.2%, 0.6% and 1.0% creams; 260 patients; cited from earlier work
[4] = 15, 45, and 120 mg/kg/day orally, 39 weeks; cited from earlier work
[5] = 192 adults with moderate to severe AD

| Molecule | outcome of the lesion (atopic dermatitis [1]) | days on which corticosteroid medication for flares was used (atopic dermatitis [2]; 24-week treatment period) | median time to first flare (atopic dermatitis [2]; [5]) [days] | patients who did not experience a flare (atopic dermatitis [2]; [5]) [%] | efficacy vs vehicle (atopic dermatitis [3]) | finding associated with oral dosing [4] |
| --- | --- | --- | --- | --- | --- | --- |
| betamethasone propionate | no improvement | – | – | – | – | – |
| CC[C@@H]1/C=C(\C)C[C@H](C)C[C@H](OC)[C@H]2O[C@@](O)(C(=O)C(=O)N3CCCC[C@H]3C(=O)O[C@H](/C(C)=C/[C@@H]3CC[C@H](Cl)[C@H](OC)C3)[C@H](C)[C@@H](O)CC1=O)[C@H](C)C[C@@H]2OC [pimecrolimus] | – | 14.2 % of the days | 144 | 44.8 | significantly more effective than vehicle | immunosuppression-related lymphoproliferative disorders |
